According to publication PMC6478789, “A chemical toolbox for the study of bromodomains and epigenetic signaling” (Nature Communications, 2019):

Tests used:
MDA-MB-436 cells [1] = experiment: NAD+/NADH ratio measurement assay; format: cell-based, human; conditions: BAY-876, 5 days
Protocol: Cells were seeded in six-well plates followed by overnight incubation. The next day, cells were treated with DMSO or the indicated concentration of BAY-876. After 5 days, cells were lysed, and intracellular metabolites were measured using commercial kits detecting acetyl-CoA (PicoProbe, Abcam ab87546) and NAD^+/NADH ratio (Abcam 65348).

MDA-MB-436 cells [2] = experiment: Immunoblot of H3 and H4 acetylation; format: cell-based, human; conditions: BAY-876 treatment
Protocol: Total cell lysates were resolved in 4−12% Bis-Tris protein gels (Invitrogen) with MOPS (3-(N-morpholino)propanesulfonic acid) buffer (Invitrogen) and transferred for 1.5 h (80 V) onto polyvinylidene fluoride membrane (Millipore) in Tris-glycine transfer buffer containing 20% MeOH and 0.05% sodium dodecyl sulfate. Blots were blocked for 1 h in blocking buffer (5% milk in 0.1% Tween-20 PBS) and incubated with primary antibodies: anti-ac-H3 (1:2000, ab47915); anti-ac-H4 (1:2000; ab177790); anti-H3 (1:2000; ab1791); anti-H4 (1:2000; ab10158); anti-H3K14ac (1:4000; ab52946); anit-BRPF1 (1:1000; Thermo Fisher); anti-BRPF2 (1:2000; ab71877) in blocking buffer overnight at 4 °C. After five washes with 0.1% Tween-20 PBS the blots were incubated with goat-anti-rabbit (IR800 conjugated, LiCor no. 926-32211) and donkey anti-mouse (IR 680, LiCor no. 926-68072) antibodies (1:5000) in Odyssey blocking buffer (LiCor) for 1 h at room temperature and washed five times with 0.1% Tween-20 PBS. The signal was read on an Odyssey scanner (LiCor) at 800 and 700 nm.

TNBC cells = experiment: Colony formation assay; format: cell-based, human; conditions: 3 µM, 2 weeks
Protocol: Colony formation studies were performed with TNBC cells on treatment with DMSO or the indicated concentrations of BAY-876. Cells were seeded into 6-well plates at 200 cells per well and left to adhere overnight. Then, cells were treated with DMSO or 3 µM BAY-876. After 2 weeks, the cells were stained with crystal violet and imaged.

PCAF = target: T1, PCAF (Homo sapiens, UniProt Q92831); set-up: purchased; method as in ref 2 (suppl.), 26 (main text); conditions: BROMOscan; ref 2 (suppl.), 26; cited from earlier work
T1 sequence (Q92831 723-827 limits assumed): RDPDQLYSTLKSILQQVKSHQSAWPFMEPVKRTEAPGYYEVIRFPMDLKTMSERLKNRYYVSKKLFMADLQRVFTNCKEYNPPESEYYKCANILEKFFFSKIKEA

p300 = conditions: ITC data; ref 9 (suppl.); cited from earlier work
GCN5 = target: GCN5; set-up: method as in ref 1 (suppl.), 25 (main text); conditions: ITC data; ref 1 (suppl.), 25; cited from earlier work
MDA-MB436 cells = experiment: Cell apoptosis assay (caspase-3/7); format: cell-based, human; conditions: 3 μM OF-1 + 3 μM BAY-876, 5 days, versus either alone
Protocol: Cells were seeded into 96-well plates at 3000 cells per well and left to adhere overnight. Then, cells were treated with DMSO or BAY-876 for 5 days, followed by addition of Incucyte TM Caspase- 3/7 reagents. Imaging of plates was carried out in an Incucyte Zoom instrument with a ×10 objective using the standard scan type. Data were analyzed using the integrated software provided with the instrument.
(§1) Wu et al., Supplementary figures and tables 5 indicate mean and error bars denote standard deviation from eight wells (from two independent assays). b) A representative immunoblot of histone acetylation level across ten TNBC lines. c) Plot of ECAR and histone acetylation across ten TNBC lines. […] Cell apoptotic activity was quantified by the fluorescent caspase 3/7 active objects. […]
Graph indicate mean and error bars denote standard deviation from four independent assay s. p value computed using a two - stage step -up Benjamini t test j) Immunoblot based quantification of H3K14ac abundance using total H3 as a control in MDA-MB-436 cells following control or 3 μM of the indicated chemical probes during a 5-day treatment. Graph indicate mean and error bars denote standard deviation from three independent assays. p value computed using a two-stage step-up Benjamini t test; **p<0.01; *** p<0.001. k) Immunoblot based quantification of H3K14ac abundance using total […]

MDA-MB-436 cells [3] = experiment: Immunoblot of H3K14 acetylation; format: cell-based, human; conditions: 3 μM, 5 days; compared to NI-57 and PFI-4
Description: Graph indicates mean, error bars denote s.d. from eight wells (from two independent assays) and p-value was computed using the Benjamini-Hochberg t test; ***p < 0.001. d Immunoblot validation of BRPF knockdown in MDA-MB-436 cells. e Quantitative real-time PCR (RT-qPCR) validation of BRPF knockdown in MDA-MB-436 cells. […] Raw data images are available in Supplementary Fig. 4 […]
Total cell lysates were resolved in 4−12% Bis-Tris protein gels (Invitrogen) with MOPS (3-(N-morpholino)propanesulfonic acid) buffer (Invitrogen) and transferred for 1.5 h (80 V) onto polyvinylidene fluoride membrane (Millipore) in Tris-glycine transfer buffer containing 20% MeOH and 0.05% sodium dodecyl sulfate. […] The signal was read on an Odyssey scanner (LiCor) at 800 and 700 nm.
as §1

Cc1c(NC(=O)c2cc(C(N)=O)nc3cc(F)ccc23)c(C(F)(F)F)nn1Cc1ccc(C#N)cc1 [BAY-876]
NAD+/NADH ratio (MDA-MB-436 cells [1]): increase
global levels of acetylated histone H3 (ac-H3) (MDA-MB-436 cells [2]): reduction
cell growth (colony formation) (TNBC cells): no overt effect on cell growth

CN1C[C@H](Nc2cnn(C)c(=O)c2Br)C[C@H](c2ccccc2)C1 [GSK4027]
Kd (PCAF): 1.4 nM

CCC(=O)N1CCOc2c(cc(-c3ccc(OC)c(OC)c3)cc2OCC2CCCN(C)C2)C1 (centres unmarked) [I-CBP112]
Kd (p300): 625 nM

Cc1nnc2c3ccccc3c(N[C@@H](C)[C@H](c3ccccc3)N(C)C)nn12 [L-Moses]
Kd (GCN5): 600 nM

COc1cc2c(cc1NS(=O)(=O)c1ccc(Br)cc1C)n(C)c(=O)n2C [OF-1]
apoptosis markers caspase-3/7 (MDA-MB436 cells): induced at a significantly higher level
acetylation of H3K14 (MDA-MB-436 cells [3]): significantly decreased
